Source: paper PMC7291858, “An Enhanced Variant Designed From DLP4 Cationic Peptide Against Staphylococcus aureus CVCC 546” (Frontiers in Microbiology, 2020)
In brackets after ≈: the same amount, converted by molar mass. Peptide text beside a SMILES is read from it.

Experiments:
Gram-negative bacteria = assay: MIC, summary over Gram-negative strains; type: cell-based; conditions: E. coli and Salmonella strains of Table 2
Protocol: (§1) The minimal inhibitory concentration (MIC) was evaluated by a microtiter plate assay ([Wiegand et al., 2008]). Serial 2-fold dilutions of test peptides were placed into a 96-well plate containing identical bacterial inoculum and incubated at 37°C for 16∼20 h. Vancomycin was used as antibiotic control. The MIC value was defined as the lowest peptide concentration where no visible growth occurred. All tests were made in triplicate.

S. aureus CVCC 546 [1] = assay: Membrane permeabilization, PI flow cytometry; type: cell-based, Staphylococcus aureus; conditions: 0.5 h, 10^8 CFU/mL, n = 3
Protocol: The effects of peptides on membrane permeabilization were measured by flow cytometry ([Zhu et al., 2018]). […] Cells untreated and treated with 2 × MIC DLP4 or vancomycin were used as blank and positive controls. The fluorescence of the dye was monitored at an excitation wavelength of 488 nm and an emission wavelength of 635 nm.

S. aureus CVCC 546 [2] = assay: Time-kill assay; type: cell-based, Staphylococcus aureus; conditions: MHB, 10^5 CFU/mL, 37°C, n = 3
Source text: Time-kill assay was used to assess the killing rates of S. aureus cells by AMPs in vitro, done by measuring the number of viable bacteria left at various times after exposure to the peptides. […] At different time intervals, a certain sample was taken, serially diluted, and plated on MHA for colonies counting. Cells treated with 2 × MIC DLP4 or vancomycin and left without treatment were used as the positive and blank controls, respectively ([Flamm et al., 2019]).

[3] = test system: Escherichia coli ATCC 25922; assay: MIC, microtiter plate assay; type: cell-based; conditions: 37°C, 16∼20 h, triplicate
Protocol: as §1

[4] = test system: Streptococcus pneumoniae CVCC 2350; assay: MIC, microtiter plate assay; type: cell-based; conditions: 37°C, 16∼20 h, triplicate
Protocol: as §1

[5] = test system: Salmonella pullorum CVCC 533; assay: MIC, microtiter plate assay; type: cell-based; conditions: 37°C, 16∼20 h, triplicate
Protocol: as §1

S. aureus CVCC 546 gDNA = assay: Gel retardation assay of gDNA binding; set-up: species or system Staphylococcus aureus; conditions: 10 min incubation, 1% agarose gel, ratios 0-5 (w/w)
Protocol: A gel retardation assay ([Zhao et al., 2019]) was utilized to analyze the binding of peptides to genomic DNA (gDNA) extracted from S. aureus CVCC 546 with TIANamp Bacteria DNA Kit (TIANGEN Biotech Co., Ltd., Beijing). The peptides were incubated for 10 min with gDNA at different ratios of 0–5.0 (w/w) and then loaded on 1% agarose gel for electrophoresis analysis.

S. aureus CVCC 546 [6] = assay: Post-antibiotic effect (PAE); type: cell-based, Staphylococcus aureus; conditions: 2 × MIC, 2 h exposure, mean ± SD, n = 3
Protocol: The PAE was determined by exposing S. aureus cells to antimicrobial agent at 1×, 2×, or 4 × MIC for 2 h. After drug removal by dilution, the bacterial culture was incubated at 37°C and 250 rpm. An aliquot of samples (50 μL) were taken for CFU counts at different time intervals until bacterial cultures became turbid. Bacteria treated with DLP4 or vancomycin and left without treatment were used as the positive and blank controls, respectively. The PAE was calculated using the following formula: PAE = T − C, where T is the time for the CFU counts to increase by 10-fold above the count observed immediately after drug removal, and C is the corresponding time for the untreated control ([Oh et al., 2019]).

E. coli K88 = assay: MIC, microtiter plate assay; type: cell-based, Escherichia coli; conditions: 37°C, 16∼20 h, triplicate
Protocol: as §1

[7] = test system: S. epidermidis ATCC 12228; assay: MIC, microtiter plate assay; type: cell-based, Staphylococcus epidermidis; conditions: 37°C, 16∼20 h, triplicate
Protocol: as §1

S. aureus ATCC 43300 = type: cell-based, Staphylococcus aureus; conditions: microtiter, serial 2-fold dilutions, 37°C, 16∼20 h, triplicate; – = no activity
Method in brief: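 Broth microdilution format: peptides diluted 2-fold serially, same inoculum per well, incubated 16∼20 h at 37°C, with vancomycin as antibiotic control. Values are the lowest concentrations preventing visible growth, determined in triplicate.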

S. aureus CVCC 546 [8] = assay: Potassium ion (K+) leakage; type: cell-based, Staphylococcus aureus; conditions: 1 × MIC, treated for 150 min, 0.9% saline, 10^8 CFU/mL, ICP, n = 3
Protocol: To further investigate the effects of peptides on membrane integrity, K^+ leakage determination was carried out as previously described ([Miao et al., 2016]). Briefly, S. aureus CVCC 546 cells were centrifuged, washed, and resuspended in 0.9% sterile saline. The cell suspension (10^8 CFU/mL) was treated with peptides at 1 × MIC. Cells untreated and treated with DLP4 or nisin were used as blank and positive controls. At time intervals of 30, 60, 90, 120, and 150 min, the suspensions were centrifuged at 12000 rpm for 5 min. The supernatants were then subjected to measurement by Agilent inductively coupled plasma optical emission (ICP-OES).

S. suis CVCC 3928 = assay: MIC, microtiter plate assay; type: cell-based, Streptococcus suis; conditions: 37°C, 16∼20 h, triplicate
Protocol: as §1

TNF-α = assay: Mouse thigh infection model, serum cytokine ELISA; type: in vivo, mouse (female CD-1); conditions: 10 mg/kg i.p., serum 24 h post-infection
Protocol: (§2) Mouse experiments were carried out at Gene Engineering Laboratory, Feed Research Institute of Chinese Academy of Agricultural Sciences (CAAS) and complied with institutional animal care and use policies and procedures (AEC-CAAS-20090609). All animal studies were performed with female CD-1 mice, 6∼7 weeks old.
(§3) S. aureus CVCC 546 in the exponential phase were resuspended in MHB and adjusted to 1 × 10^8 CFU/mL, a 0.1-mL inoculum was injected into the right thighs of mice. At 2 h post-infection, mice (n = 6) were administered intraperitoneally (i.p.) with peptides at 2.5, 5, or 10 mg/kg. Mice raised without any treatment, or treated with PBS, 10 mg/kg DLP4, or vancomycin were used as the blank and negative and positive controls, respectively. At 24 h post-infection, peripheral blood was collected and serum was separated for cytokine levels analysis by using enzyme-linked immunosorbent assay (ELISA) kit (R&D systems, United States). Mice were euthanized, the right thighs were aseptically removed and processed for colonies counting ([Ling et al., 2015]).

IL-6 = assay: Mouse thigh infection model, serum cytokine ELISA; type: in vivo, mouse (female CD-1); conditions: 10 mg/kg i.p., serum 24 h post-infection
Protocol: as §2, §3

IL-10 = assay: Mouse thigh infection model, serum cytokine ELISA; type: in vivo, mouse (female CD-1); conditions: 10 mg/kg i.p., serum 24 h post-infection
Protocol: as §2, §3

S. enteritidis CVCC 3377 = assay: MIC, microtiter plate assay; type: cell-based, Salmonella enteritidis; conditions: 37°C, 16∼20 h, triplicate
Protocol: as §1

With CC[C@H](C)[C@@H]1NC(=O)[C@@H]2CSSC[C@@H](C(=O)N[C@@H](CCCNC(=N)N)C(=O)N[C@@H](CCCCN)C(=O)O)NC(=O)[C@H](CC(N)=O)NC(=O)[C@@H]3CSSC[C@H](NC(=O)[C@H](C)NC(=O)[C@H](C)NC(=O)[C@H](Cc4c[nH]cn4)NC(=O)CNC(=O)[C@H](C(C)C)NC(=O)[C@H](CCCCN)NC(=O)[C@H](Cc4ccccc4)NC(=O)[C@@H]4CCCN4C(=O)[C@H](CO)NC(=O)[C@H](CC(C)C)NC(=O)[C@H](CC(C)C)NC(=O)[C@H](CC(=O)O)NC(=O)[C@@H](NC(=O)[C@@H](NC(=O)[C@H](C)N)[C@@H](C)O)CSSC[C@H](NC(=O)[C@H](Cc4c[nH]c5ccccc45)NC(=O)CNC(=O)CNC(=O)[C@H](CCCNC(=N)N)NC(=O)[C@H](CCCCN)NC(=O)CNC(=O)[C@H](CCCNC(=N)N)NC(=O)[C@H](C)NC1=O)C(=O)N[C@@H](CC(=O)O)C(=O)NCC(=O)N[C@@H](CCCNC(=N)N)C(=O)N[C@@H](C)C(=O)N[C@@H](C(C)C)C(=O)N3)C(=O)N[C@@H](C)C(=O)N[C@@H](C)C(=O)N[C@@H](Cc1c[nH]cn1)C(=O)N2 [ID13] (HELM PEPTIDE1{A.T.C.D.L.L.S.P.F.K.V.G.H.A.A.C.A.A.H.C.I.A.R.G.K.R.G.G.W.C.D.G.R.A.V.C.N.C.R.K}$PEPTIDE1,PEPTIDE1,3:R3-30:R3|PEPTIDE1,PEPTIDE1,16:R3-36:R3|PEPTIDE1,PEPTIDE1,20:R3-38:R3$$$V2.0; N-terminus and C-terminus assumed) as the molecule, how does the “activity against Gram-negative bacteria” value (Gram-negative bacteria) read?
Its value is “no activity”.

And the “percentage of PI-positive cells” value (S. aureus CVCC 546 [1]; 1 × MIC)?
The value was 47.2%.

What about the “percentage of PI-positive cells” value (S. aureus CVCC 546 [1]; 2 × MIC) of the same molecule?
The value was 48.2%.

And the “percentage of PI-positive cells” value (S. aureus CVCC 546 [1]; 4 × MIC)?
The value was 52.8%.

What about the “decrease of CFU counts within 1 h” value (S. aureus CVCC 546 [2]; 1 × MIC) of the same molecule?
The value was 2.16 log10 CFU/mL.

And the “decrease of CFU counts within 1 h” value (S. aureus CVCC 546 [2]; 2 × MIC)?
Its value is 3.14 log10 CFU/mL.

What about the “decrease of CFU counts within 1 h” value (S. aureus CVCC 546 [2]; 4 × MIC) of the same molecule?
Its value is 3.4 log10 CFU/mL.

And the MIC [3]?
The MIC was over 30.50 µM.

And the MIC [4]?
The MIC was 0.95 µM (≈ 3.99 µg/mL).

What about the MIC [5] of the same molecule?
Its MIC is over 30.50 µM.

What about the “peptide/gDNA mass ratio at which gDNA was completely blocked” value (S. aureus CVCC 546 gDNA) of the same molecule?
Its value is 5.

What about the “peptide/gDNA mass ratio at which migration of gDNA began to be retarded” value (S. aureus CVCC 546 gDNA) of the same molecule?
Its value is 1.

What about the PAE (S. aureus CVCC 546 [6]) of the same molecule?
The PAE was 12.78 ± 0.28 h.

What about the MIC (E. coli K88) of the same molecule?
Its MIC is over 30.50 µM.

And the MIC [7]?
The MIC was 1.91 µM (≈ 8.02 µg/mL).

What about the “A1 (MIC against S. aureus ATCC 43300)” value (S. aureus ATCC 43300) of the same molecule?
Its value is 4 mg/L.

And the “level of released K+” value (S. aureus CVCC 546 [8])?
Its value is 0.81 mg/L.

And the MIC (S. suis CVCC 3928)?
Its MIC is 0.95 µM (≈ 3.99 µg/mL).

And the “downregulation of serum level of TNF-α” value (TNF-α)?
Its value is 1123.30 pg/mL.

What about the “downregulation of serum level of IL-6” value (IL-6) of the same molecule?
The value was 750.02 pg/mL.

What about the “downregulation of serum level of IL-10” value (IL-10) of the same molecule?
The value was 37.66 pg/mL.

What about the MIC (S. enteritidis CVCC 3377) of the same molecule?
The MIC was over 30.50 µM.
